Measurements taken from PubChem BioAssay (NCI).
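Grown in 96-well plates, cells were treated for 48 hours with each compound at five concentrations. Insufficient inhibition: endpoint recorded as highest concentration tested. At the TGI there is no net growth.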

What was measured:
Test in all cases: NCI-60 cell line screen, 48 h
MCF7 breast = tested on: MCF7 breast
HCT-15 colon = tested on: HCT-15 colon
OVCAR-5 ovarian = tested on: OVCAR-5 ovarian
NCI-H23 lung = tested on: NCI-H23 lung
OVCAR-8 ovarian = tested on: OVCAR-8 ovarian
UACC-257 melanoma = tested on: UACC-257 melanoma
HCC-2998 colon = tested on: HCC-2998 colon
SK-MEL-28 melanoma = tested on: SK-MEL-28 melanoma
NCI-H522 lung = tested on: NCI-H522 lung
SK-MEL-5 melanoma = tested on: SK-MEL-5 melanoma
OVCAR-3 ovarian = tested on: OVCAR-3 ovarian
MOLT-4 leukemia = tested on: MOLT-4 leukemia
NCI-H460 lung = tested on: NCI-H460 lung
SNB-75 CNS = tested on: SNB-75 CNS
NCI-H226 lung = tested on: NCI-H226 lung
RPMI-8226 leukemia = tested on: RPMI-8226 leukemia
OVCAR-4 ovarian = tested on: OVCAR-4 ovarian
A549 NSCLC = tested on: A549 NSCLC
SW-620 colon = tested on: SW-620 colon
TK-10 renal = tested on: TK-10 renal
KM12 colon = tested on: KM12 colon
IGROV1 ovarian = tested on: IGROV1 ovarian
HT29 colon = tested on: HT29 colon
COLO 205 colon = tested on: COLO 205 colon
T-47D breast = tested on: T-47D breast
NCI/ADR-RES ovarian = tested on: NCI/ADR-RES ovarian
ACHN renal = tested on: ACHN renal
SN12C renal = tested on: SN12C renal
UO-31 renal = tested on: UO-31 renal
786-0 renal = tested on: 786-0 renal
U251 CNS = tested on: U251 CNS
DU-145 prostate = tested on: DU-145 prostate
SNB-19 CNS = tested on: SNB-19 CNS
SF-295 CNS = tested on: SF-295 CNS
M14 melanoma = tested on: M14 melanoma
HCT-116 colon = tested on: HCT-116 colon
HS 578T breast = tested on: HS 578T breast
SK-MEL-2 melanoma = tested on: SK-MEL-2 melanoma
SR leukemia = tested on: SR leukemia
RXF 393 renal = tested on: RXF 393 renal
LOX IMVI melanoma = tested on: LOX IMVI melanoma
HOP-62 NSCLC = tested on: HOP-62 NSCLC
EKVX NSCLC = tested on: EKVX NSCLC
SK-OV-3 ovarian = tested on: SK-OV-3 ovarian
MDA-MB-231 breast = tested on: MDA-MB-231 breast
SF-268 CNS = tested on: SF-268 CNS
K-562 leukemia = tested on: K-562 leukemia
CAKI-1 renal = tested on: CAKI-1 renal
BT-549 breast = tested on: BT-549 breast
UACC-62 melanoma = tested on: UACC-62 melanoma
MDA-N = tested on: MDA-N
PC-3 prostate = tested on: PC-3 prostate
MDA-MB-435 = tested on: MDA-MB-435
SF-539 CNS = tested on: SF-539 CNS
MALME-3M melanoma = tested on: MALME-3M melanoma
CCRF-CEM leukemia = tested on: CCRF-CEM leukemia
HOP-92 NSCLC = tested on: HOP-92 NSCLC
HL-60(TB) leukemia = tested on: HL-60(TB) leukemia

O=C1c2ccccc2-c2c1c1ccccc1c(=O)n2-c1cccnc1 showed a TGI (MCF7 breast) greater than 100 µM, a TGI (HCT-15 colon) greater than 100 µM and a TGI (OVCAR-5 ovarian) greater than 100 µM. For the same molecule, the TGI (NCI-H23 lung) was greater than 100 µM, the TGI (OVCAR-8 ovarian) was greater than 100 µM and the TGI (UACC-257 melanoma) was greater than 100 µM. For the same molecule, the TGI (HCC-2998 colon) was greater than 100 µM, the TGI (SK-MEL-28 melanoma) was greater than 100 µM and the TGI (NCI-H522 lung) was 39.3 µM. It also gave a TGI (SK-MEL-5 melanoma) greater than 100 µM, a TGI (OVCAR-3 ovarian) greater than 100 µM and a TGI (MOLT-4 leukemia) greater than 28.4 µM. The TGI (NCI-H460 lung) was greater than 100 µM, the TGI (SNB-75 CNS) was greater than 100 µM and the TGI (NCI-H226 lung) was greater than 100 µM. It also gave a TGI (RPMI-8226 leukemia) greater than 100 µM, a TGI (OVCAR-4 ovarian) greater than 100 µM and a TGI (A549 NSCLC) greater than 100 µM. For the same molecule, the TGI (SW-620 colon) was greater than 100 µM, the TGI (TK-10 renal) was greater than 100 µM and the TGI (KM12 colon) was greater than 100 µM. The TGI (IGROV1 ovarian) was greater than 100 µM, the TGI (HT29 colon) was greater than 100 µM and the TGI (COLO 205 colon) was greater than 100 µM. The TGI (T-47D breast) was greater than 100 µM, the TGI (NCI/ADR-RES ovarian) was greater than 100 µM and the TGI (ACHN renal) was greater than 100 µM. The TGI (SN12C renal) was greater than 100 µM, the TGI (UO-31 renal) was greater than 100 µM and the TGI (786-0 renal) was 44.7 µM. For the same molecule, the TGI (U251 CNS) was greater than 100 µM, the TGI (DU-145 prostate) was greater than 100 µM and the TGI (SNB-19 CNS) was greater than 100 µM. For the same molecule, the TGI (SF-295 CNS) was greater than 100 µM, the TGI (M14 melanoma) was greater than 100 µM and the TGI (HCT-116 colon) was greater than 100 µM. It also gave a TGI (HS 578T breast) greater than 100 µM, a TGI (SK-MEL-2 melanoma) greater than 100 µM and a TGI (SR leukemia) greater than 100 µM. The TGI (RXF 393 renal) was greater than 100 µM, the TGI (LOX IMVI melanoma) was greater than 100 µM and the TGI (HOP-62 NSCLC) was 41.8 µM. It also gave a TGI (EKVX NSCLC) greater than 100 µM, a TGI (SK-OV-3 ovarian) greater than 100 µM and a TGI (MDA-MB-231 breast) greater than 100 µM. For the same molecule, the TGI (SF-268 CNS) was greater than 100 µM, the TGI (K-562 leukemia) was greater than 100 µM and the TGI (CAKI-1 renal) was greater than 100 µM. It also gave a TGI (BT-549 breast) greater than 100 µM, a TGI (UACC-62 melanoma) greater than 85.8 µM and a TGI (MDA-N) greater than 100 µM. For the same molecule, the TGI (PC-3 prostate) was greater than 100 µM, the TGI (MDA-MB-435) was greater than 100 µM and the TGI (SF-539 CNS) was greater than 71.1 µM. It also gave a TGI (MALME-3M melanoma) greater than 100 µM.
For COC(=O)CNC(=O)c1cc(C)cc2c1Oc1c(cc(C)cc1C(=O)NCC(=O)OC)S2, the TGI (MCF7 breast) was greater than 100 µM, the TGI (HCT-15 colon) was greater than 100 µM and the TGI (OVCAR-5 ovarian) was greater than 100 µM. The TGI (NCI-H23 lung) was greater than 100 µM, the TGI (OVCAR-8 ovarian) was greater than 100 µM and the TGI (UACC-257 melanoma) was greater than 100 µM. The TGI (HCC-2998 colon) was greater than 100 µM, the TGI (SK-MEL-28 melanoma) was greater than 100 µM and the TGI (NCI-H522 lung) was greater than 100 µM. For the same molecule, the TGI (OVCAR-3 ovarian) was greater than 100 µM, the TGI (MOLT-4 leukemia) was greater than 100 µM and the TGI (SNB-75 CNS) was greater than 100 µM. It also gave a TGI (NCI-H226 lung) greater than 100 µM, a TGI (RPMI-8226 leukemia) greater than 100 µM and a TGI (OVCAR-4 ovarian) greater than 100 µM. The TGI (A549 NSCLC) was greater than 100 µM, the TGI (SW-620 colon) was greater than 100 µM and the TGI (TK-10 renal) was greater than 100 µM. It also gave a TGI (KM12 colon) greater than 100 µM, a TGI (IGROV1 ovarian) greater than 100 µM and a TGI (HT29 colon) greater than 100 µM. The TGI (COLO 205 colon) was 70.9 µM, the TGI (T-47D breast) was greater than 100 µM and the TGI (NCI/ADR-RES ovarian) was greater than 100 µM. For the same molecule, the TGI (CCRF-CEM leukemia) was greater than 100 µM, the TGI (ACHN renal) was 58.4 µM and the TGI (SN12C renal) was greater than 100 µM. For the same molecule, the TGI (HOP-92 NSCLC) was 57.2 µM, the TGI (786-0 renal) was greater than 100 µM and the TGI (U251 CNS) was greater than 100 µM. It also gave a TGI (DU-145 prostate) greater than 100 µM, a TGI (SNB-19 CNS) greater than 100 µM and a TGI (SF-295 CNS) greater than 100 µM. It also gave a TGI (M14 melanoma) greater than 100 µM, a TGI (HCT-116 colon) greater than 100 µM and a TGI (HS 578T breast) greater than 100 µM. The TGI (SK-MEL-2 melanoma) was greater than 100 µM, the TGI (SR leukemia) was greater than 100 µM and the TGI (RXF 393 renal) was 69.4 µM. For the same molecule, the TGI (LOX IMVI melanoma) was greater than 100 µM, the TGI (HOP-62 NSCLC) was greater than 100 µM and the TGI (EKVX NSCLC) was greater than 100 µM. For the same molecule, the TGI (SK-OV-3 ovarian) was greater than 100 µM, the TGI (MDA-MB-231 breast) was greater than 100 µM and the TGI (SF-268 CNS) was greater than 100 µM. For the same molecule, the TGI (K-562 leukemia) was greater than 100 µM, the TGI (CAKI-1 renal) was greater than 100 µM and the TGI (BT-549 breast) was greater than 100 µM. For the same molecule, the TGI (UACC-62 melanoma) was greater than 100 µM, the TGI (MDA-N) was greater than 100 µM and the TGI (PC-3 prostate) was greater than 100 µM. For the same molecule, the TGI (MDA-MB-435) was greater than 100 µM, the TGI (SF-539 CNS) was 43.7 µM and the TGI (MALME-3M melanoma) was 40.7 µM.
Molecule CC12CCC(C(=O)n3c1nc1ccccc13)C(C)(C)O2 (stereo unspecified) has a TGI (MCF7 breast) greater than 100 µM, a TGI (HCT-15 colon) greater than 100 µM and a TGI (OVCAR-5 ovarian) greater than 100 µM. The TGI (NCI-H23 lung) was greater than 100 µM, the TGI (OVCAR-8 ovarian) was greater than 100 µM and the TGI (UACC-257 melanoma) was greater than 100 µM. The TGI (HCC-2998 colon) was greater than 100 µM, the TGI (SK-MEL-28 melanoma) was greater than 100 µM and the TGI (NCI-H522 lung) was greater than 100 µM. For the same molecule, the TGI (SK-MEL-5 melanoma) was greater than 100 µM, the TGI (OVCAR-3 ovarian) was greater than 100 µM and the TGI (MOLT-4 leukemia) was greater than 100 µM. The TGI (SNB-75 CNS) was greater than 100 µM, the TGI (NCI-H226 lung) was greater than 100 µM and the TGI (RPMI-8226 leukemia) was greater than 100 µM. It also gave a TGI (OVCAR-4 ovarian) greater than 100 µM, a TGI (A549 NSCLC) greater than 100 µM and a TGI (SW-620 colon) greater than 100 µM. The TGI (TK-10 renal) was greater than 100 µM, the TGI (KM12 colon) was greater than 100 µM and the TGI (IGROV1 ovarian) was greater than 100 µM. The TGI (HT29 colon) was greater than 100 µM, the TGI (COLO 205 colon) was greater than 100 µM and the TGI (T-47D breast) was greater than 100 µM. It also gave a TGI (NCI/ADR-RES ovarian) greater than 100 µM, a TGI (CCRF-CEM leukemia) greater than 100 µM and a TGI (ACHN renal) greater than 100 µM. The TGI (SN12C renal) was greater than 100 µM, the TGI (UO-31 renal) was greater than 100 µM and the TGI (HOP-92 NSCLC) was greater than 100 µM. It also gave a TGI (786-0 renal) greater than 100 µM, a TGI (U251 CNS) greater than 100 µM and a TGI (DU-145 prostate) greater than 100 µM. It also gave a TGI (SNB-19 CNS) greater than 100 µM, a TGI (SF-295 CNS) greater than 100 µM and a TGI (M14 melanoma) greater than 100 µM. It also gave a TGI (HCT-116 colon) greater than 100 µM, a TGI (HS 578T breast) greater than 100 µM and a TGI (SK-MEL-2 melanoma) greater than 100 µM. The TGI (SR leukemia) was greater than 100 µM, the TGI (RXF 393 renal) was greater than 100 µM and the TGI (LOX IMVI melanoma) was greater than 100 µM. For the same molecule, the TGI (HOP-62 NSCLC) was greater than 100 µM, the TGI (EKVX NSCLC) was greater than 100 µM and the TGI (SK-OV-3 ovarian) was greater than 100 µM. The TGI (HL-60(TB) leukemia) was greater than 100 µM, the TGI (MDA-MB-231 breast) was greater than 100 µM and the TGI (SF-268 CNS) was greater than 100 µM. For the same molecule, the TGI (K-562 leukemia) was greater than 100 µM, the TGI (CAKI-1 renal) was greater than 100 µM and the TGI (BT-549 breast) was greater than 100 µM. The TGI (UACC-62 melanoma) was greater than 100 µM, the TGI (MDA-N) was greater than 100 µM and the TGI (PC-3 prostate) was greater than 100 µM. It also gave a TGI (MDA-MB-435) greater than 100 µM, a TGI (SF-539 CNS) greater than 100 µM and a TGI (MALME-3M melanoma) greater than 100 µM.
